Legend:
[1] = test system: A549-ACE2 infected with SARS-CoV-2; assay: cell count relative to DMSO; higher = less toxic; details: 24 h
Caco-2 [2] = assay: cell viability relative to DMSO; higher = less toxic; details: 72 h
Calu-3 [3] = assay: as above; details: 72 h
HepG2 [4] = assay: as above; details: 72 h
U2OS [5] = assay: as above; details: 72 h
Vero E6 [6] = assay: as above; details: 72 h
[7] = test system: A549-ACE2 infected with SARS-CoV-2; assay: SARS-CoV-2 infection rate relative to DMSO; higher = more infection; details: 24 h
A549-ACE2 = assay: drug-induced phospholipidosis relative to tamoxifen; higher = more phospholipidosis
[8] = test system: A549-ACE2 infected with SARS-CoV-2; assay: morphology score (similarity to uninfected cells); higher = more like uninfected cells; details: 24 h
Caco-2 [9] = assay: relative viability EC50 (midpoint between 100% and the lowest measured viability); higher = less toxic; details: 72 h
Calu-3 [10] = assay: as above; details: 72 h
HepG2 [11] = assay: as above; details: 72 h
U2OS [12] = assay: as above; details: 72 h
Vero E6 [13] = assay: as above; details: 72 h
Caco-2 [14] = assay: drug sensitivity score (DSS) for viability; higher = more toxic; extreme values may be limits of the assay; details: 72 h
Calu-3 [15] = assay: as above; details: 72 h
HepG2 [16] = assay: as above; details: 72 h
U2OS [17] = assay: as above; details: 72 h
Vero E6 [18] = assay: as above; details: 72 h

Clc1ccc(N/N=C(\c2ccccc2)c2ccccn2)nc1 [JIB04]
Details	SARS-CoV-2 infection rate, [7] [%]	cell count, [1] [%]	cell viability, Caco-2 [2] [%]	cell viability, Calu-3 [3] [%]	cell viability, HepG2 [4] [%]	cell viability, U2OS [5] [%]	cell viability, Vero E6 [6] [%]	morphology score, [8]
1 nM	–	–	89.4	101	92.7	102	91.7	–
10 nM	–	–	94.1	108	87.8	97.9	102	–
100 nM	–	–	33.7	102	19.8	95.6	89.4	–
0.3 µM	104	99	–	–	–	–	–	-0.14
1000 nM	–	–	11.2	14.7	6.2	34.3	53.7	–
3 µM	82	96	–	–	–	–	–	0.28
10 µM	36	88	–	–	–	–	–	0.37
10000 nM	–	–	34.7	18.8	21.6	6.9	6.4	–
30 µM	50	54	–	–	–	–	–	0.36

A549-ACE2
Details	drug-induced phospholipidosis [%]
0.3 µM, 24 h	4.18
0.3 µM, 48 h	6.34
0.3 µM, 72 h	8.31
0.833333 µM, 24 h	-0.88
3.33333 µM, 24 h	-2.31
6.66667 µM, 24 h	22.5
10 µM, 24 h	26.1
30 µM, 24 h	2.4

Details	drug sensitivity score	relative viability EC50 [nM]
Caco-2 [9]	–	50.2
Caco-2 [14]	24.6	–
Calu-3 [10]	–	327
Calu-3 [15]	15.3	–
HepG2 [11]	–	32.7
HepG2 [16]	28.1	–
U2OS [12]	–	595
U2OS [17]	13.2	–
Vero E6 [13]	–	943
Vero E6 [18]	10.7	–

Nc1nc(N)c(N=O)c(OCC2CCCCC2)n1 [NU-6027]
Details	SARS-CoV-2 infection rate, [7] [%]	cell count, [1] [%]	cell viability, Caco-2 [2] [%]	cell viability, Calu-3 [3] [%]	cell viability, HepG2 [4] [%]	cell viability, U2OS [5] [%]	cell viability, Vero E6 [6] [%]	morphology score, [8]
1 nM	–	–	100	101	87.7	104	96	–
10 nM	–	–	97.5	117	92.7	101	105	–
100 nM	–	–	96.6	106	96.4	104	99.8	–
0.3 µM	104	100	–	–	–	–	–	-0.13
1000 nM	–	–	100	105	89.9	101	95	–
3 µM	68	103	–	–	–	–	–	0.59
10 µM	52	107	–	–	–	–	–	0.62
10000 nM	–	–	46	81.4	58.4	70.7	89.7	–
30 µM	41	100	–	–	–	–	–	0.46

drug-induced phospholipidosis [%], A549-ACE2
Details	0.3 µM	0.833333 µM	3.33333 µM	6.66667 µM	10 µM	30 µM
24 h	1.28	-0.02	2.45	3.35	2.35	28.5
48 h	2.37	-0.39	-0.5	-1.38	1.26	–
72 h	1.92	-1.07	-2.27	-1.09	-1.29	–

Details	drug sensitivity score	relative viability EC50 [nM]
Caco-2 [9]	–	3170
Caco-2 [14]	2.9	–
Calu-3 [10]	–	> 10000
Calu-3 [15]	0.3	–
HepG2 [16]	3.7	–
U2OS [17]	1.2	–
Vero E6 [13]	–	> 10000
Vero E6 [18]	0	–

CCN(CC)Cc1cc(Nc2ccnc3cc(Cl)ccc23)ccc1O [amodiaquine]
Details	SARS-CoV-2 infection rate, [7] [%]	cell count, [1] [%]	cell viability, Caco-2 [2] [%]	cell viability, Calu-3 [3] [%]	cell viability, HepG2 [4] [%]	cell viability, U2OS [5] [%]	cell viability, Vero E6 [6] [%]	morphology score, [8]
1 nM	–	–	99.3	114	103	98.5	101	–
10 nM	–	–	92.1	110	79	101	99.3	–
100 nM	–	–	90.2	106	85.7	103	101	–
0.3 µM	87	109	–	–	–	–	–	0.38
1000 nM	–	–	96.7	91.5	85.7	98.1	95.3	–
3 µM	24	121	–	–	–	–	–	0.87
10 µM	12	133	–	–	–	–	–	0.76
10000 nM	–	–	58.5	81.8	57.7	93.9	84.9	–
30 µM	14	121	–	–	–	–	–	0.1

Details	drug sensitivity score	relative viability EC50 [nM]
Caco-2 [14]	2.6	–
Calu-3 [10]	–	> 10000
Calu-3 [15]	1.3	–
HepG2 [16]	5.5	–
U2OS [12]	–	> 10000
U2OS [17]	0	–
Vero E6 [13]	–	> 10000
Vero E6 [18]	0.6	–

Cc1c(-c2ccc(O)cc2)n(Cc2ccc(OCCN3CCCCCC3)cc2)c2ccc(O)cc12 [bazedoxifene]
Details	SARS-CoV-2 infection rate, [7] [%]	cell count, [1] [%]	cell viability, Caco-2 [2] [%]	cell viability, Calu-3 [3] [%]	cell viability, HepG2 [4] [%]	cell viability, U2OS [5] [%]	cell viability, Vero E6 [6] [%]	morphology score, [8]
1 nM	–	–	104	96.3	95.2	104	102	–
10 nM	–	–	95.3	91.5	106	101	105	–
0.1 µM	97	99	–	–	–	–	–	0.02
100 nM	–	–	95.4	105	95.3	104	98.3	–
0.3 µM	103	105	–	–	–	–	–	0.05
1 µM	85	103	–	–	–	–	–	0.36
1000 nM	–	–	91.5	97.6	98.1	99.2	100	–
3 µM	22	122	–	–	–	–	–	0.83
10000 nM	–	–	60.4	11.6	12.3	53	18.1	–

drug-induced phospholipidosis [%], A549-ACE2
Details	0.3 µM	0.833333 µM	3.33333 µM	6.66667 µM	10 µM
24 h	0.63	6.49	23.7	37.6	4.23
48 h	0.36	3.68	24.9	44.4	36.7
72 h	0.978	3.09	19.4	39.6	52.6

Details	drug sensitivity score	relative viability EC50 [nM]
Caco-2 [14]	3.3	–
Calu-3 [10]	–	2970
Calu-3 [15]	5.2	–
HepG2 [11]	–	3010
HepG2 [16]	5.1	–
U2OS [17]	2.5	–
Vero E6 [13]	–	3180
Vero E6 [18]	4.5	–
